We go through nine compounds from article PMC9636582 (The Journal of Biological Chemistry, 2022).

The target in one experiment is T1, GAL4-PPARδ LBD (Homo sapiens, UniProt Q03181).
T1 construct: chimeric receptors containing the LBD of various NRs; expressed in transfected cells; host or cells: HEK293
T1 sequence (Q03181 211-439 limits assumed): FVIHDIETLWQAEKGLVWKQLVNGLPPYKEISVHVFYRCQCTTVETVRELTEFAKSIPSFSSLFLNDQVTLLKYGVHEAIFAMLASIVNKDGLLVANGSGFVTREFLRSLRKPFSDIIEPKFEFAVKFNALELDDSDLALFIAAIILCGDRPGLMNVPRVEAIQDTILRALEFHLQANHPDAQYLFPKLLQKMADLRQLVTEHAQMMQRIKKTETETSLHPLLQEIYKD
Briefly: GAL4-PPARδ LBD luciferase reporter assay in HEK293 cells. It is filed as cell-based. Particulars: for PPARδ activation (in words): 100 μM fatty acids, Fig. 1B.

For another experiment, the target named is T2, GAL4-PPARα LBD (Homo sapiens, UniProt Q07869).
T2 construct: chimeric receptors containing the LBD of various NRs; expressed in transfected cells; host or cells: HEK293
T2 sequence (Q07869 239-466 limits assumed): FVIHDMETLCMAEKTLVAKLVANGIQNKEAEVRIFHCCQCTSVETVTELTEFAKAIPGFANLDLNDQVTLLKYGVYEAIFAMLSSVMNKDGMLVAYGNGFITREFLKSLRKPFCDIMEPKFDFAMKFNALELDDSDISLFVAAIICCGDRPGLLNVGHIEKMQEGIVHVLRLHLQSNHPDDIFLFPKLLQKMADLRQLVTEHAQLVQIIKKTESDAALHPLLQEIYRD
Description: GAL4-PPARα LBD luciferase reporter assay in HEK293 cells. It is filed as cell-based. The settings on record: for ligand-induced activation of PPARα (in words): 100 μM fatty acids, Fig. 1B. For orientation: In a reporter assay the amount or activity of a reporter protein is the signal.

Experiment [1] deals with human intestinal organoids. Description: PPARδ target gene mRNA expression in human intestinal organoids (RT-qPCR). The settings on record: 1 μM GW1516 or 30 μM fatty acids for 24 h. The class given is cell-based. (In general: Real-time PCR tracks product formation cycle by cycle.)
Another experiment concerns the target T3, VP16-PPARα / GAL4-NCoR (Homo sapiens, UniProt Q07869).
T3 construct: expressed in transfected cells; host or cells: HEK293
T3 sequence (Q07869 1-468): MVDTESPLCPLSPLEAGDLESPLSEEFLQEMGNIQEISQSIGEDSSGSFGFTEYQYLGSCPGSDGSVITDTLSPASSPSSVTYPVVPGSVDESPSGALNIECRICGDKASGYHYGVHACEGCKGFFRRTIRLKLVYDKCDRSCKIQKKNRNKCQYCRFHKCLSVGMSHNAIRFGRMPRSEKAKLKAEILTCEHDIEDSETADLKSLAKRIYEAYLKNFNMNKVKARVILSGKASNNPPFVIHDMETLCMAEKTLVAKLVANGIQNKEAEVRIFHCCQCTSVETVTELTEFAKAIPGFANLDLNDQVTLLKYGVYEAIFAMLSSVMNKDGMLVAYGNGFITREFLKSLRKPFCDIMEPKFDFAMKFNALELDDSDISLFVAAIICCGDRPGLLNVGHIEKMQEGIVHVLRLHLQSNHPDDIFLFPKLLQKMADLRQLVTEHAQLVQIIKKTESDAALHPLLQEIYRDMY
Description: mammalian two-hybrid assay, VP16-PPARα and corepressor NCoR. It is filed as cell-based. The settings on record: 30 μM fatty acids, HEK293 cells, Fig. 3D.

For another experiment, the target named is T4, full-length PPARδ (Homo sapiens, UniProt Q03181).
T4 construct: expressed in transfected cells; host or cells: HEK293
T4 sequence (Q03181 1-441): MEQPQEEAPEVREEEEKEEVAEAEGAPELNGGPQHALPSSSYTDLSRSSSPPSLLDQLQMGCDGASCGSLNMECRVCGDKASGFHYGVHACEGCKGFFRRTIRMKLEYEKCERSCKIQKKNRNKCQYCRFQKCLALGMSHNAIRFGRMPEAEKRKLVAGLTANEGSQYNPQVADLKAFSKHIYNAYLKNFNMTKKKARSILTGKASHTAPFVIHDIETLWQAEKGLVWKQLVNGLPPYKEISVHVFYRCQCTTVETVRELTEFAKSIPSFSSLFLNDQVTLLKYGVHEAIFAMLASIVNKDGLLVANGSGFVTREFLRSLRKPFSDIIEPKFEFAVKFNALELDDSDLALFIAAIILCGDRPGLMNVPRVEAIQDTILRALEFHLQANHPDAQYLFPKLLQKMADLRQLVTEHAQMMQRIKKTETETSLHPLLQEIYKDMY
Briefly: full-length PPARδ PPRE luciferase reporter assay in HEK293 cells. The class given is cell-based. The settings on record: Fig. 1C. The source says: Luciferase activities were normalized to β-galactosidase activities.

For another experiment, the target named is T5, VP16-PPARδ / GAL4-NCoR (Homo sapiens, UniProt Q03181).
T5 construct: expressed in transfected cells; host or cells: HEK293
T5 sequence (Q03181 1-441): T4 sequence (Q03181 1-441)
Description: mammalian two-hybrid assay, VP16-PPARδ and corepressor NCoR. The class given is cell-based. Particulars: 30 μM fatty acids, HEK293 cells, Fig. 3C.

A further experiment has as its target T6, VP16-PPARδ / GAL4-SRC-1 (Homo sapiens, UniProt Q03181).
T6 construct: expressed in transfected cells; host or cells: HEK293
T6 sequence (Q03181 1-441): T4 sequence (Q03181 1-441)
T6 sequence (Q15788 595-771 partner limits assumed): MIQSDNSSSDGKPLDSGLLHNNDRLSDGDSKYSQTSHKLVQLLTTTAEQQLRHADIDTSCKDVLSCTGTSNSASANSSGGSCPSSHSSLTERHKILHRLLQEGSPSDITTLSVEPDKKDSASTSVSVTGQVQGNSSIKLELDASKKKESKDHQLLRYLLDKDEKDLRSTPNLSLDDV
Description: mammalian two-hybrid assay, VP16-PPARδ and coactivator GAL4-SRC-1. The class given is cell-based. The settings on record: 30 μM fatty acids, 100 nM GW1516, HEK293 cells, Fig. 3A.

For experiment [2], the target named is T7, recombinant human PPARδ LBD protein (Homo sapiens, UniProt Q03181).
T7 construct: Human PPARδ LBD (140–442) construct was cloned into a pGEX-4T1 vector; GST (N, cleaved yes); made in house; host or cells: Escherichia coli BL21 (DE3) pLys
T7 sequence (Q03181 140-441 limits assumed): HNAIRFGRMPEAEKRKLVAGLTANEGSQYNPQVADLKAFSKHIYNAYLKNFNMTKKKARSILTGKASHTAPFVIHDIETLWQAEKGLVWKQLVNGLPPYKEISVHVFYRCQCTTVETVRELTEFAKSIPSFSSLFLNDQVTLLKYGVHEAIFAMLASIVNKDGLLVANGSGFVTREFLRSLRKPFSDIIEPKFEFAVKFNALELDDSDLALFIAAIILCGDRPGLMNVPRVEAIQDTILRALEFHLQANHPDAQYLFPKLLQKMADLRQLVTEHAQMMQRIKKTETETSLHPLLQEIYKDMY
Briefly: [14C] DHA competitive ligand-binding assay. The settings on record: 100 nM [14C] DHA, 1 μM nonlabeled fatty acids, overnight at 4 °C. The procedure:
To identify the mechanism underlying the activation of PPARδ by GLA-derived fatty acids, we performed a [^14C] DHA competitive ligand-binding assay describing the displacement of ligands from receptors with recombinant human PPARδ LBD protein produced by a bacterial expression system (Figs. 4, A and B and S2). PPARδ LBD or glutathione-S-transferase (GST) recombinant protein was incubated with both [^14C] […] A competitive inhibition of [^14C] DHA binding was analyzed as a direct binding to PPARδ LBD (see Experimental procedures). […] DHA binding to PPARδ LBD competitively (Fig. 4C).
Human PPARδ LBD (140–442) construct was cloned into a pGEX-4T1 vector (GE Healthcare Life Sciences) at the restriction enzyme site of SmaI and XhoI. The protein was expressed in Eschericia coli BL21 (DE3) pLys cells (Novagen) as a C-terminal fusion to a GST tag with a thrombin cleavage site. A single colony was cultured in 2 ml of LB media supplemented with 20 μg/ml of ampicillin and 30 μg/ml of chloramphenicol at 37 °C and 200 rpm for 18 h. The preculture was then transferred to 1 l of LB media until the A600 reached 0.6 to 0.8. IPTG was added to produce a final concentration of 0.4 mM, and expression was continued at 24 °C and 150 rpm for 18 h. Cells were collected using centrifugation, and pellets were resuspended in lysis buffer comprising 50 mM Tris–HCl (pH 7.5), 150 mM NaCl, 5 mM DTT, 1 mM EDTA, and 10% glycerol before sonication was performed. The supernatant was then collected using centrifugation at 100,000g and 4 °C for 70 min, after which it was loaded onto GST Accept (nacalai tesque) and equilibrated using the lysis buffer. Subsequently, the column was washed using five column volumes of the lysis buffer and thrombin cleavage buffer comprising 20 mM Tri–HCl (pH 8.4), 150 mM NaCl, 2.5 mM CaCl2, and 1 mM DTT, respectively. The GST tag was removed via digestion using biotinylated thrombin (Merck) for 18 h at 4 °C. The biotinylated thrombin was removed using Dynabeads M-280 streptavidin (Veritas). The purity of the target proteins was verified using SDS-PAGE.
A ligand-binding assay was performed as described previously with minor modifications ([72]). Briefly, purified recombinant human PPARδ LBD protein was incubated with 100 nM ([…]) [^14C] DHA in GP buffer (137 mM NaCl, 8.1 mM Na2HPO4, 2.68 mM KCl, 1.47 mM KH2PO4, 1% sodium azide, and 0.1% gelatin) overnight at 4 °C with or without various competitors (1 μM), including DHA and GLA-derived fatty acids. Unbound ligands were removed by adsorption to 3% dextran-coated charcoal, and the supernatant was collected. The PPARδ-bound [^14C] DHA was measured using a scintillation counter (PerkinElmer).

For the next experiment, the target named is T8, VP16-PPARα / GAL4-SRC-1 (Homo sapiens, UniProt Q07869).
T8 construct: expressed in transfected cells; host or cells: HEK293
T8 sequence (Q07869 1-468): T3 sequence (Q07869 1-468)
T8 sequence (Q15788 595-771 partner limits assumed): T6 sequence (Q15788 595-771 partner limits assumed)
Briefly: mammalian two-hybrid assay, VP16-PPARα and coactivator GAL4-SRC-1. Particulars: 30 μM fatty acids, 1 μM GW7647, HEK293 cells, Fig. 3B. It is filed as cell-based.

One may read the EC50 as the concentration giving half of the maximal effect. Take `CC/C=C\C/C=C\C/C=C\C/C=C\C/C=C\C/C=C\CCC(=O)O` [DHA, docosahexaenoic acid, reference compound]: the 50% effective concentration (EC50) on GAL4-PPARδ LBD (GAL4-PPARδ LBD, calculated from luciferase activity with Quest Graph EC50 Calculator) is 44.6 µM; at GAL4-PPARα LBD (GAL4-PPARα LBD, calculated from luciferase activity with Quest Graph EC50 Calculator) it was 9.32 µM.
For `Cc1cc(SCc2sc(-c3ccc(C(F)(F)F)cc3)nc2C)ccc1OCC(=O)O` [GW1516, reference compound], the “expression of PPARδ target genes (CPT1A, HMGCS2, PDK4, ACSL1)” value in experiment [1] is “upregulated the mRNA expression of target genes”.
Turning to `CCCCCC(O)CC/C=C\CCCCCCCC(=O)O` (centres unmarked) [HYD], on GAL4-PPARδ LBD, the “PPARδ activation (in words)” value was “effective”. Moreover, the “ligand-induced activation of PPARα (in words)” value (shortened to “ligand-induced activation”) at GAL4-PPARα LBD is recorded as “little or no effect”.
The matching figures for `CCCCCC(O)CCC(O)CCCCCCCCC(=O)O` (centres unmarked) [HYE]: “effective” and “little or no effect”.
Regarding `CCCCCC(=O)CC/C=C\CCCCCCCC(=O)O` [KetoD], the “PPARδ activation (in words)” value at GAL4-PPARδ LBD is listed as “effective”. Also, the “ligand-induced activation” value at GAL4-PPARα LBD is given as “little or no effect”.
Turning to `CC/C=C\CC(O)CC/C=C\CCCCCCCC(=O)O` (centres unmarked) [αHYD], the “PPARδ activation (in words)” value at GAL4-PPARδ LBD is on record as “effective”. Moreover, the “ligand-induced activation” value at GAL4-PPARα LBD is “little or no effect”.
As to `CC/C=C\CC(O)CCC(O)CCCCCCCCC(=O)O` (centres unmarked) [αHYE], the “ligand-induced activation” value at GAL4-PPARα LBD is “little or no effect”.
Regarding `CC/C=C\CC(=O)CC/C=C\CCCCCCCC(=O)O` [αKetoD], the “ligand-induced activation” value on GAL4-PPARα LBD is “little or no effect”.
Consider `CCCCCC(O)CCC(O)CC/C=C\CCCCC(=O)O` (stereo not drawn) [γHYE, 10,13-dihydroxy-cis-6-octadecenoic acid], for which the “PPARδ activation (in words)” value at GAL4-PPARδ LBD is on record as “more robust PPARδ activation than their original compound, GLA”. For the same compound, the “interaction between PPARα and corepressor NCoR” value at VP16-PPARα / GAL4-NCoR is “reduced the interaction”. In addition, the “transactivation of full-length PPARδ (in words)” value on full-length PPARδ is recorded as “activated PPARδ potently”. On VP16-PPARδ / GAL4-NCoR, the “interaction between PPARδ and corepressor NCoR” value is on record as “reduced the interaction”. At VP16-PPARδ / GAL4-SRC-1, the “recruitment of coactivator SRC-1 to PPARδ” value is “induced coactivator-recruitment”. For the same compound, the “competitive displacement of [14C] DHA binding to PPARδ LBD” value in experiment [2] is “displaced [^14C] DHA binding to PPARδ LBD competitively”. On VP16-PPARα / GAL4-SRC-1, the “recruitment of coactivator SRC-1 to PPARα” value is reported as “induced coactivator-recruitment”.
